Test results reported in ChEMBL document CHEMBL1201862, “PubChem BioAssay data set” (2004).
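Protocol summary: plate cells (96-well), add compound at 5 concentrations, incubate 48 h, interpolate endpoints linearly. GI50: concentration for 50% inhibition of growth.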 The source made the active and inactive calls. Cut-off read from the data, not from the text of the source: active = GI50 up to about 1.1 µM and inactive = higher.

Key:
Test in all cases: growth of human tumour cells (NCI), 48 h
U-251 = system: U-251
HOP-62 = system: HOP-62
SF-295 = system: SF-295
PC-3 = system: PC-3
SW-620 = system: SW-620
OVCAR-3 = system: OVCAR-3
A549 = system: A549
UACC-257 = system: UACC-257
IGROV-1 = system: IGROV-1
LOX IMVI = system: LOX IMVI
UACC-62 = system: UACC-62
RXF 393 = system: RXF 393
SK-MEL-5 = system: SK-MEL-5
Malme-3M = system: Malme-3M
HCT-116 = system: HCT-116
COLO 205 = system: COLO 205
Hs-578T = system: Hs-578T
SR = system: SR
SF-539 = system: SF-539
A498 = system: A498

| SMILES | GI50 (U-251) | GI50 (HOP-62) | GI50 (SF-295) | GI50 (PC-3) | GI50 (SW-620) | GI50 (OVCAR-3) | GI50 (A549) | GI50 (UACC-257) | GI50 (IGROV-1) | GI50 (LOX IMVI) | GI50 (UACC-62) | GI50 (RXF 393) | GI50 (SK-MEL-5) | GI50 (Malme-3M) | GI50 (HCT-116) | GI50 (COLO 205) | GI50 (Hs-578T) | GI50 (SR) | GI50 (SF-539) | GI50 (A498) |
| --- | --- | --- | --- | --- | --- | --- | --- | --- | --- | --- | --- | --- | --- | --- | --- | --- | --- | --- | --- | --- |
| CC1CC[C@@]2(OC1)OC1C[C@H]3[C@@H]4CC=C5C[C@@H](OC6OC(CO)C(OC7OC(CO)C(O)C(O)C7O)C(O)C6OC6OC(C)C(O)C(O)C6O)CC[C@]5(C)[C@H]4CC[C@]3(C)C1[C@@H]2C (stereo partly drawn) | 0.493 µM (active) | 0.593 µM (active) | 1.94 µM (inactive) | 0.469 µM (active) | 0.624 µM (active) | 0.643 µM (active) | 0.746 µM (active) | 0.526 µM (active) | 0.516 µM (active) | 0.462 µM (active) | 0.469 µM (active) | 0.431 µM (active) | 0.543 µM (active) | 0.634 µM (active) | 0.838 µM (active) | 0.526 µM (active) | 0.714 µM (active) | 0.402 µM (active) | 0.491 µM (active) | 0.611 µM (active) |
| CC(=O)c1c2c(cc3c1CC1(C3)Cc3ccc4c(c3C1=O)CCC4)CCC2 (stereo not drawn) | 56.9 µM (inactive) | > 100 µM (inactive) | 93.3 µM (inactive) | 16 µM (inactive) | 32.7 µM (inactive) | > 100 µM (inactive) | 21.5 µM (inactive) | 2.75 µM (inactive) | 87.3 µM (inactive) | 14.8 µM (inactive) | 44.5 µM (inactive) | 9.64 µM (inactive) | 13.4 µM (inactive) | 30.6 µM (inactive) | 10.8 µM (inactive) | 11 µM (inactive) | 13.5 µM (inactive) | 4.61 µM (inactive) | > 100 µM (inactive) | > 100 µM (inactive) |
| C[C@H]1C2Cc3cc(N)ccc3[C@@]1(C)CCN2CCc1ccccc1 | 43.8 µM (inactive) | 39.5 µM (inactive) | 27.4 µM (inactive) | 22.6 µM (inactive) | 64.7 µM (inactive) | 15.9 µM (inactive) | 42.7 µM (inactive) | 30.7 µM (inactive) | 41.9 µM (inactive) | 20.2 µM (inactive) | 45.5 µM (inactive) | 33.3 µM (inactive) | 18.3 µM (inactive) | 17.7 µM (inactive) | 41.8 µM (inactive) | 16.8 µM (inactive) | 96.6 µM (inactive) | 19.3 µM (inactive) | 45.2 µM (inactive) | 29.4 µM (inactive) |
| Nc1nc(N)c(CCCCc2ccc([N+](=O)[O-])cc2)c(N)n1 | 10.6 µM (inactive) | > 100 µM (inactive) | 17.1 µM (inactive) | 7.71 µM (inactive) | > 30.5 µM (inactive) | > 100 µM (inactive) | 7.29 µM (inactive) | > 96.2 µM (inactive) | 23.6 µM (inactive) | 6.62 µM (inactive) | 8.67 µM (inactive) | 24.9 µM (inactive) | 16.7 µM (inactive) | 41.9 µM (inactive) | 3.93 µM (inactive) | > 94 µM (inactive) | > 100 µM (inactive) | 10.6 µM (inactive) | > 85.3 µM (inactive) | > 100 µM (inactive) |
| CCOC(=O)/C=C(/C(=O)OCC)n1cc(C)c(=O)n(/C(=C/C(=O)OCC)C(=O)OCC)c1=O | 6.93 µM (inactive) | 24.8 µM (inactive) | 18.7 µM (inactive) | 5.22 µM (inactive) | 1.22 µM (inactive) | 2.79 µM (inactive) | 15.9 µM (inactive) | 4.9 µM (inactive) | 4.75 µM (inactive) | 1.74 µM (inactive) | 5.97 µM (inactive) | 1.8 µM (inactive) | 7.31 µM (inactive) | 1.85 µM (inactive) | 1.91 µM (inactive) | 1.32 µM (inactive) | 6.4 µM (inactive) | 1.89 µM (inactive) | 8.85 µM (inactive) | 19.8 µM (inactive) |
| COc1ccc(S(=O)(=O)Nc2ccc(-c3csc(N4C(=O)/C(=C/c5cccs5)N=C4c4ccccc4)n3)cc2)cc1Cl | 34.9 µM (inactive) | 4.08 µM (inactive) | 10.4 µM (inactive) | 34.8 µM (inactive) | 50.9 µM (inactive) | 43.6 µM (inactive) | 38.9 µM (inactive) | 46.3 µM (inactive) | 30.5 µM (inactive) | 37 µM (inactive) | 31.1 µM (inactive) | 29.5 µM (inactive) | 40.8 µM (inactive) | 32.3 µM (inactive) | 30.9 µM (inactive) | 40.6 µM (inactive) | 35.2 µM (inactive) | 28.6 µM (inactive) | 54.2 µM (inactive) | 24.3 µM (inactive) |
| CN(C)CCNC(=O)c1cccc2nc3c(C(=O)NCCN(C)C)cccc3nc12 | 0.632 µM (active) | 1.31 µM (inactive) | 1.31 µM (inactive) | 0.76 µM (active) | 0.462 µM (active) | 1.7 µM (inactive) | 1.57 µM (inactive) | 2.14 µM (inactive) | 1.78 µM (inactive) | 0.366 µM (active) | 2.9 µM (inactive) | 1.44 µM (inactive) | 1.56 µM (inactive) | 1.77 µM (inactive) | 0.603 µM (active) | 0.612 µM (active) | 1.89 µM (inactive) | 0.368 µM (active) | 1.92 µM (inactive) | 1.85 µM (inactive) |
| Cc1ccnc2c1C(=O)C1=C(OC(C)(C)CC1O)C2=O (stereo not drawn) | 3.34 µM (inactive) | 3.37 µM (inactive) | 3.81 µM (inactive) | 2.91 µM (inactive) | 2.87 µM (inactive) | 2.67 µM (inactive) | 8.77 µM (inactive) | 1.74 µM (inactive) | 3.03 µM (inactive) | 2.56 µM (inactive) | 1.71 µM (inactive) | 10.7 µM (inactive) | 1.17 µM (inactive) | 1.27 µM (inactive) | 2.82 µM (inactive) | 2.41 µM (inactive) | 2.81 µM (inactive) | 2.03 µM (inactive) | 3.41 µM (inactive) | 15.3 µM (inactive) |
| CC1=C(C(=O)OCCO[N+](=O)[O-])C(c2cccc([N+](=O)[O-])c2)C(C(=O)OC(C)C)=C(C)N1 (stereo not drawn) | 14.9 µM (inactive) | 16.6 µM (inactive) | 11.4 µM (inactive) | 4.25 µM (inactive) | 22.3 µM (inactive) | 10.4 µM (inactive) | 12.9 µM (inactive) | 12.3 µM (inactive) | 14 µM (inactive) | 16.9 µM (inactive) | 14.5 µM (inactive) | 13.8 µM (inactive) | 12.8 µM (inactive) | 17.7 µM (inactive) | 10.5 µM (inactive) | 10.7 µM (inactive) | 7.71 µM (inactive) | 24.8 µM (inactive) | 14.2 µM (inactive) | 19.4 µM (inactive) |
| C=C1CCCCCCCCCCC1[S+]([O-])c1ccccc1 (stereo not drawn) | 21 µM (inactive) | 60.8 µM (inactive) | 42 µM (inactive) | 31.5 µM (inactive) | – | 34.1 µM (inactive) | 33.3 µM (inactive) | 47.1 µM (inactive) | 16 µM (inactive) | 28.8 µM (inactive) | 45.4 µM (inactive) | 26.5 µM (inactive) | 29.5 µM (inactive) | > 100 µM (inactive) | 30.5 µM (inactive) | 25.6 µM (inactive) | 44.5 µM (inactive) | 25.2 µM (inactive) | 21 µM (inactive) | 38.6 µM (inactive) |
| CC[C@@]1(O)C(=O)OCc2c1cc1n(c2=O)Cc2c-1nc1ccccc1c2/C=N/NC(=O)C[N+](C)(C)C | 1.11 µM (active) | 0.359 µM (active) | 0.56 µM (active) | 9.59 µM (inactive) | 4.99 µM (inactive) | 38.3 µM (inactive) | 1.22 µM (inactive) | 12.7 µM (inactive) | 38.8 µM (inactive) | 0.824 µM (active) | 0.121 µM (active) | 0.697 µM (active) | 1.5 µM (inactive) | 16.7 µM (inactive) | 2.3 µM (inactive) | 62.4 µM (inactive) | > 100 µM (inactive) | 0.0391 µM (active) | 0.386 µM (active) | 7.76 µM (inactive) |
| Cc1[nH]n(C2=NCCN2)c(=O)c1C | > 100 µM (inactive) | > 100 µM (inactive) | > 100 µM (inactive) | > 100 µM (inactive) | > 100 µM (inactive) | > 100 µM (inactive) | > 100 µM (inactive) | > 100 µM (inactive) | > 100 µM (inactive) | > 100 µM (inactive) | > 100 µM (inactive) | > 100 µM (inactive) | > 100 µM (inactive) | > 100 µM (inactive) | > 100 µM (inactive) | > 100 µM (inactive) | > 100 µM (inactive) | > 100 µM (inactive) | > 100 µM (inactive) | > 100 µM (inactive) |
| C=CC(C)(C)NC(C(=O)N1CCC[C@H]1c1nc(-c2nc(C(=O)OCC=C(C)C)c(C)o2)c(C)o1)C(C)C (stereo partly drawn) | > 48.2 µM (inactive) | > 100 µM (inactive) | > 50 µM (inactive) | > 64 µM (inactive) | 45.8 µM (inactive) | 46.6 µM (inactive) | > 58.9 µM (inactive) | > 58.7 µM (inactive) | 52.1 µM (inactive) | > 49.2 µM (inactive) | 37.8 µM (inactive) | > 55.2 µM (inactive) | 47.1 µM (inactive) | > 100 µM (inactive) | > 60.7 µM (inactive) | 34 µM (inactive) | 81.5 µM (inactive) | 32.2 µM (inactive) | > 48.2 µM (inactive) | 47.1 µM (inactive) |
| COc1ccc(NCc2cc(OC)c(OC)c(OC)c2)cc1 | 0.431 µM (active) | 0.468 µM (active) | 0.294 µM (active) | 0.912 µM (active) | 0.215 µM (active) | 0.255 µM (active) | 0.597 µM (active) | – | 0.582 µM (active) | 0.417 µM (active) | 0.274 µM (active) | 0.372 µM (active) | 0.293 µM (active) | 0.488 µM (active) | 0.408 µM (active) | 0.291 µM (active) | 0.641 µM (active) | 0.228 µM (active) | 0.265 µM (active) | 0.521 µM (active) |
